Test results as given in PubChem BioAssay (NCI).
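Values below derive from 48-hour exposures of cells grown in 96-well plates, with endpoints linearly interpolated between the two concentrations bracketing the appropriate inhibition level. GI50 = concentration required for 50% inhibition of growth. TGI marks complete inhibition of growth.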

Key:
Experiment in all cases: NCI tumour cell line growth inhibition, 48 h
[1] = system: MDA-MB-435
[2] = system: BT-549 breast
[3] = system: PC-3 prostate
[4] = system: RXF 393 renal
[5] = system: MCF7 breast
[6] = system: OVCAR-5 ovarian
[7] = system: KM12 colon
[8] = system: HOP-92 NSCLC
[9] = system: HS 578T breast
[10] = system: SK-MEL-28 melanoma
[11] = system: MOLT-4 leukemia
[12] = system: 786-0 renal
[13] = system: DU-145 prostate

Structure (SMILES) | TGI [1] | TGI [2] | TGI [3] | TGI [4] | TGI [5] | TGI [6] | TGI [7] | TGI [8] | TGI [9] | TGI [10] | TGI [11] | TGI [12] | TGI [13] | GI50 [1] | GI50 [3] | GI50 [13] | GI50 [6] | GI50 [7] | GI50 [8]
[N-]=[N+]=Nc1cc(=O)n(-c2ccccc2)c(=O)n1-c1ccccc1 | > 100 µM | > 100 µM | > 100 µM | > 100 µM | > 100 µM | > 100 µM | > 100 µM | > 100 µM | > 100 µM | > 100 µM | > 100 µM | > 100 µM | – | – | – | – | – | – | –
CC1=C/C(=N\N(C)C)C(C(O)(C(F)(F)F)C(F)(F)F)C(C)(C)C1 (centres undefined) | > 100 µM | – | > 100 µM | > 100 µM | > 100 µM | > 100 µM | > 100 µM | 81 µM | > 100 µM | > 100 µM | > 100 µM | > 100 µM | > 100 µM | – | – | – | – | – | –
CO[C@H]1C[C@@H]2CC[C@@H](C)[C@@](O)(O2)C(=O)C(=O)N2CCCC[C@H]2C(=O)O[C@H]([C@H](C)C[C@@H]2CC[C@@H](OC(=O)C(C)(CO)CO)[C@H](OC)C2)CC(=O)[C@H](C)/C=C(\C)[C@@H](O)[C@@H](OC)C(=O)[C@H](C)C[C@H](C)/C=C/C=C/C=C/1C | > 100 µM | – | > 81.6 µM | 21.9 µM | – | > 100 µM | > 100 µM | – | 17.2 µM | > 100 µM | > 100 µM | > 100 µM | > 100 µM | 2.5 µM | < 0.0487 µM | 0.0379 µM | > 59.1 µM | 2.17 µM | 1.58 µM
CC(C)C1=CC(=O)C(C)(C2=NC(C)(C)CO2)c2ccccc21 (centres undefined) | – | – | – | > 100 µM | – | – | > 100 µM | > 100 µM | – | > 100 µM | > 100 µM | > 100 µM | – | – | – | – | – | – | –
CCCCC1(OC(=O)CCC(=O)O)CCC2(CCC(C)C(C/C=C(C)/C=C/C(O)C(C)/C=C/C(=O)O)O2)OC1CC/C(C)=C/C(=O)O (centres undefined) | – | – | – | 4.58 µM | – | 14.4 µM | 11.8 µM | 4.74 µM | – | 5.07 µM | 26.9 µM | 14.3 µM | – | – | – | – | – | – | –
COCC1OCCN1C (centres undefined) | > 100 µM | > 100 µM | > 100 µM | > 100 µM | > 100 µM | > 100 µM | > 100 µM | > 100 µM | > 100 µM | – | > 100 µM | > 100 µM | – | – | – | – | – | – | –
CC1(C)C[C@H]2C3=CC[C@@H]4[C@@]5(C)CC[C@H](O)C(C)(C)[C@@H]5CC[C@@]4(C)[C@]3(C)C[C@@H](O)[C@@]23C[C@@H]1OC3=O | > 100 µM | – | > 100 µM | – | > 100 µM | > 100 µM | > 100 µM | > 100 µM | > 100 µM | > 100 µM | > 100 µM | > 100 µM | > 100 µM | – | – | – | – | – | –
CC1=C(C(=O)OC23CC4CC(CC(C4)C2)C3)C(c2ccccc2OC(F)F)C(C(=O)OC23CC4CC(CC(C4)C2)C3)=C(C)N1 (centres undefined) | > 100 µM | > 100 µM | – | > 100 µM | > 100 µM | > 100 µM | > 100 µM | > 100 µM | > 100 µM | > 100 µM | > 100 µM | > 100 µM | > 100 µM | – | – | – | – | – | –
N=c1oc2cc(O)c(O)cc2cc1C(N)=O | – | – | – | > 100 µM | – | > 100 µM | > 100 µM | > 100 µM | – | > 100 µM | > 100 µM | > 100 µM | – | – | – | – | – | – | –
NC(=S)Nc1nnc(-c2ccc(-c3nnc(NC(N)=S)o3)cc2)o1 | – | – | – | > 100 µM | – | > 100 µM | > 100 µM | > 100 µM | – | > 100 µM | > 100 µM | > 100 µM | – | – | – | – | – | – | –
NC(=O)CC1(O)C=CC(=O)C=C1 | > 100 µM | > 100 µM | > 100 µM | > 100 µM | > 100 µM | > 100 µM | > 100 µM | > 100 µM | – | > 100 µM | > 100 µM | > 100 µM | > 100 µM | – | – | – | – | – | –
COC(=O)c1cccc(C)c1C1CN=NC12Cc1c(ccc(C)c1C)C2=O (centres undefined) | > 100 µM | – | – | 92.4 µM | > 100 µM | > 100 µM | > 100 µM | > 100 µM | > 100 µM | > 100 µM | 86.7 µM | > 100 µM | > 100 µM | – | – | – | – | – | –
COc1cc(/C=C2\CCC(C)c3c2nc(N)c(C#N)c3-c2cc(OC)c(OC)c(OC)c2)cc(OC)c1OC (centres undefined) | > 100 µM | – | > 100 µM | > 100 µM | > 100 µM | > 100 µM | > 100 µM | > 100 µM | 75.1 µM | > 100 µM | > 100 µM | > 100 µM | > 100 µM | – | – | – | – | – | –
Cc1cccc(NC(=O)CSc2nnc(Cc3ccccc3)o2)c1 | – | – | – | > 100 µM | – | > 100 µM | > 100 µM | – | – | > 100 µM | > 100 µM | > 100 µM | – | – | – | – | – | – | –
CN(C)Cc1cc(C(=O)/C=C/c2c(Cl)cccc2Cl)cc(CN(C)C)c1O | 21.9 µM | – | 19 µM | 18.6 µM | 14.7 µM | 32.2 µM | 7.2 µM | 9.06 µM | 38.7 µM | 20.9 µM | 30.3 µM | 16.2 µM | 20.8 µM | – | – | – | – | – | –
O=C(CSc1nnc(-c2ccc(N=Cc3ccc(Cl)cc3)cc2)o1)Nc1ccccc1 | – | – | – | 96.9 µM | – | – | – | – | – | > 100 µM | > 100 µM | 47 µM | – | – | – | – | – | – | –
C1=Cc2nc1c(-c1ccccc1)c1ccc([n-]1)c(-c1ccccc1)c1nc(c(-c3ccccc3)c3ccc([n-]3)c2-c2ccccc2)C=C1.[Zn+2] | – | – | – | – | – | > 100 µM | > 100 µM | > 100 µM | – | > 100 µM | > 100 µM | > 100 µM | – | – | – | – | – | – | –
CC(C)(C)c1cc(N=NC(=S)NCc2ccccc2)cc(C(C)(C)C)c1O | – | – | – | > 100 µM | – | – | – | – | – | > 100 µM | > 100 µM | > 100 µM | – | – | – | – | – | – | –
Cc1nc(Nc2ccccc2)sc1C(=O)NNC(N)=O | – | – | – | > 100 µM | – | > 100 µM | > 100 µM | > 100 µM | – | > 100 µM | > 100 µM | > 100 µM | – | – | – | – | – | – | –
CN(C)c1cccc(-c2cc(=O)c3cc4c(cc3[nH]2)OCO4)c1 | – | – | – | 0.859 µM | – | 0.92 µM | 1.46 µM | > 100 µM | – | > 100 µM | > 100 µM | 30.1 µM | – | – | – | – | – | – | –
C=CCN1C(=O)N/C(=C\c2ccc(Cl)cc2)C1=O | > 100 µM | > 100 µM | – | > 100 µM | > 100 µM | > 100 µM | > 100 µM | > 100 µM | > 100 µM | > 100 µM | > 100 µM | > 100 µM | > 100 µM | – | – | – | – | – | –
